Measurements published in PubChem BioAssay (NCI).
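GI50 is the concentration that inhibits growth by half. TGI: total growth inhibition.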

How the values were obtained:
Assay in all cases: NCI-60 cell line screen, 384-well format
[1] = tested on: A498 renal
[2] = tested on: OVCAR-4 ovarian
[3] = tested on: CCRF-CEM leukemia
[4] = tested on: OVCAR-5 ovarian
[5] = tested on: MOLT-4 leukemia
[6] = tested on: SNB-19 CNS
[7] = tested on: EKVX NSCLC
[8] = tested on: LOX IMVI melanoma
[9] = tested on: HCC-2998 colon
[10] = tested on: T-47D breast
[11] = tested on: SN12C renal
[12] = tested on: HCT-116 colon
[13] = tested on: HOP-92 NSCLC
[14] = tested on: MALME-3M melanoma
[15] = tested on: MDA-MB-231 breast
[16] = tested on: UO-31 renal
[17] = tested on: SF-539 CNS
[18] = tested on: COLO 205 colon
[19] = tested on: NCI-H322M lung
[20] = tested on: NCI-H460 NSCLC
[21] = tested on: SK-MEL-28 melanoma
[22] = tested on: OVCAR-3 ovarian
[23] = tested on: ACHN renal
[24] = tested on: K-562 leukemia
[25] = tested on: OVCAR-8 ovarian
[26] = tested on: 786-0 renal
[27] = tested on: MDA-MB-435 melanoma
[28] = tested on: SF-295 CNS
[29] = tested on: SK-OV-3 ovarian
[30] = tested on: MDA-MB-468 breast
[31] = tested on: TK-10 renal
[32] = tested on: DU-145 prostate
[33] = tested on: U251 glioblastoma
[34] = tested on: HCT-15 colon
[35] = tested on: UACC-257 melanoma
[36] = tested on: SK-MEL-5 melanoma
[37] = tested on: A549 NSCLC
[38] = tested on: NCI-H522 lung

Compound `CCOC(=O)c1ccc2[nH]c(Cc3[nH]c4ccc(C(=O)OCC)cc4c3C)c(C)c2c1` has a GI50 [1] of 2.36 µM, a TGI [1] of 10.6 µM and a GI50 [2] of 3.11 µM. It also gave a TGI [2] of 14.3 µM, a GI50 [3] of 0.763 µM and a TGI [3] of 11.7 µM. For the same compound, the GI50 [4] was 2.73 µM, the TGI [4] was 32.1 µM and the GI50 [5] was 0.0514 µM. It also gave a TGI [5] of 0.274 µM, a GI50 [6] of 5.4 µM and a TGI [6] of 21.3 µM. It also gave a GI50 [7] of 4.62 µM, a TGI [7] of 18.2 µM and a GI50 [8] of 0.481 µM. The TGI [8] was 1.91 µM, the GI50 [9] was 1.56 µM and the TGI [9] was 16.1 µM. It also gave a GI50 [10] of 2.88 µM, a TGI [10] of 9.2 µM and a GI50 [11] of 3.08 µM. For the same compound, the TGI [11] was 12.6 µM, the GI50 [12] was 0.472 µM and the TGI [12] was 2.41 µM. It also gave a GI50 [13] of 2.07 µM, a TGI [13] of 7.98 µM and a GI50 [14] of 1.63 µM. The TGI [14] was 6.41 µM, the GI50 [15] was 0.601 µM and the TGI [15] was 12.1 µM. It also gave a GI50 [16] of 3.36 µM, a TGI [16] of 18.9 µM and a GI50 [17] of 1.3 µM. It also gave a TGI [17] of 7.85 µM, a GI50 [18] of 0.344 µM and a TGI [18] of 14.5 µM. It also gave a GI50 [19] of 4.26 µM, a TGI [19] of 19.7 µM and a GI50 [20] of 0.281 µM. It also gave a TGI [20] of 2.07 µM, a GI50 [21] of 3.4 µM and a TGI [21] of 23.1 µM. The GI50 [22] was 2.97 µM, the TGI [22] was 12.7 µM and the GI50 [23] was 1.8 µM. For the same compound, the TGI [23] was 8.24 µM, the GI50 [24] was 0.356 µM and the TGI [24] was 12.3 µM. It also gave a GI50 [25] of 1.56 µM, a TGI [25] of 11.1 µM and a GI50 [26] of 1.4 µM. For the same compound, the TGI [26] was 11.7 µM, the GI50 [27] was 4.68 µM and the TGI [27] was 61.4 µM. For the same compound, the GI50 [28] was 0.464 µM, the TGI [28] was 4.59 µM and the GI50 [29] was 4.64 µM. It also gave a TGI [29] of 18.6 µM, a GI50 [30] of 1.08 µM and a TGI [30] of 7.27 µM. The GI50 [31] was 0.498 µM, the TGI [31] was 11.4 µM and the GI50 [32] was 3.05 µM. The TGI [32] was 17 µM, the GI50 [33] was 1.13 µM and the TGI [33] was 6.01 µM. The GI50 [34] was 0.0286 µM, the TGI [34] was 6.55 µM and the GI50 [35] was 9.7 µM. For the same compound, the TGI [35] was 25.3 µM, the GI50 [36] was 1.23 µM and the TGI [36] was 2.8 µM. The GI50 [37] was 1.92 µM, the TGI [37] was 14.6 µM and the GI50 [38] was 1.69 µM. The TGI [38] was 12.1 µM.
